Read-outs that look alike come from different tables or passages of the source.
What was measured:
[1] = system: DMBA-induced breast cancer; type: in vivo; settings: for changes in body weight: vs control; for general conditions: deaths: 15 rats; for day from which development of tumors was confirmed: control: day 35
Protocol: The antitumor effects of cellobiose were examined using the rat DMBA-induced breast cancer model. Specifically, 7-week-old female rats were grouped using body weight as an index, and then 7,12-dimethylbenz[a]anthracene (DMBA) (20 mg/mL/rat) was forcibly administered orally. Two doses of the test substance (4 and 40 mg/kg/day) were forcibly administered orally once a day from the day after grouping for 12 consecutive weeks.
Fifty-two 6-week-old female rats, Crl: CD (SD) (SPF), were purchased from Charles River Laboratories, Japan Inc. on Mar. 28, 2012 (Number of rats ordered: 50).
Animals, for which no abnormalities had been confirmed as a result of observation of general conditions during the quarantine and conditioning periods, were selected and then grouped by the stratified continuous randomization method using body weight as an index based on the following table of group composition (Table 1). The remaining animals were excluded from the test groups on the day of grouping and then disposed of after excessive euthanization with ether.
DMBA was weighed to the required amount using an electronic even Sartorius Laboratory balance (SARTORIUS K.K.). The weighed DMBA was added to a beaker containing sesame oil, and then the solution was stirred using a mighty magnetic stirrer (Koike precision instruments) until the DMBA was completely dissolved. After dissolution, the solution was transferred to a volumetric graduated cylinder and then diluted to a concentration of 20 mg/mL. Upon preparation, countermeasures were taken against chemical hazards to avoid inhalation and adhesion to skin by wearing masks, safety eyeglasses, and gloves. Preparation was performed before use. Any carcinogen remaining after administration was treated as medical waste.
The carcinogen was administered to each animal after grouping. Specifically, the carcinogen was forcibly administered orally at a dosage of 1 mL/animal using sonde for oral administration (disposable sonde for oral administration, FUCHIGAMI) and glass syringes (disposable syringes, TERUMO Corporation). Administration was performed using masks, safety eyeglasses and gloves in order to avoid inhalation and adhesion to skin.
Next, the test substance was weighed to the required amount using an electronic Sartorius Analytic balance (SARTORIUS K.K.), and then dissolved in the medium. The resultant was transferred to a volumetric graduated cylinder, and then diluted to concentrations of 0.8 mg/mL and 8.0 mg/mL. Preparation was performed before use. The solution of the test substance (to be administered) that had remained after administration was diluted with a large volume of tap water and then discarded.
Administration of the test substance began the day after grouping (designated as day 1). The test substance was forcibly administered orally once a day for 12 consecutive weeks.
Upon administration, the test substance solution was forcibly administered orally at 5 mL/kg/day using sonde for oral administration (disposable sonde for oral administration, FUCHIGAMI) and glass syringes (disposable syringes, TERUMO Corporation) according to the table of group composition. The fluid volume administered was calculated based on the body weight measured on the day closest to the date of administration.
After administration of the carcinogen, the general conditions were observed every day. Body weight was measured once a week.
When the development of tumors was confirmed, the number of tumors developed in each animal was measured, and then the tumor volume estimate (mm^3) of each tumor was calculated once a week. In addition, the tumor volume estimate (mm^3) of each tumor was found by shaving the hair around the relevant tumor, measuring the tumor size (major axis “a” and minor axis “b” (mm)) using a vernier caliper, calculating according to the following formula, and then finding the sum of tumor volume estimates of the tumors.
Tumor volume estimate (mm^3) of each tumor=0.5 ×a×b^2 […]

[2] = system: HeLa (human cervical cancer-derived cell line); assay: XTT assay, effect on cell survival (HeLa); type: cell-based
Excerpt: (§1) The presence or the absence of the selective cytotoxic activity of the test substance (cellobiose) was examined on various established cell lines.
(§2) Cell species: HeLa (human cervical cancer-derived cell line), HaCaT (human-derived immortalized keratinocyte) and Hep-G2 (human liver cancer-derived cell line)
(§3) (Thawing and Passage Culture of Cells) • (1) HeLa, HaCaT, and Hep-G2 cells were thawed and then cultured in various specialized media. • (2) Cells were passaged 2 to 3 times. • (3) Cells that had recovered their growth capacity were used for the test. […]

[3] = system: HaCaT (human-derived immortalized keratinocyte); assay: XTT assay, effect on cell survival (HaCaT); type: cell-based
Excerpt: as §1, §2, §3

[4] = system: Hep-G2 (human liver cancer-derived cell line); assay: XTT assay, effect on cell survival (Hep-G2); type: cell-based
Excerpt: as §1, §2, §3

HeLa cells = assay: Confirmation of the performance of cell proliferation kit (XTT) with HeLa; type: cell-based, human; settings: 500 μM, 3 hours
Protocol: (Confirmation of the Performance of Cell Proliferation Kit (XTT)) • (1) HeLa cells were seeded in 16 wells of a 96-well plate at 1×10^4 cells/100 μL/well. • (2) Cells were cultured for 24 hours in a CO2 incubator. • (3) Dexamethasone was added at […] concentrations of 0 (control), 10, 100, and 500 μM (N=4). • (4) After addition, cells were cultured for 3 hours in the CO2 incubator. • (5) 50 μL of an XTT reagent was added. • (6) After addition, cells were cultured for 3 hours in the CO2 incubator. • (7) Absorbance was measured at 450 nm to 500 nm (ref.: 630 nm to 690 nm).

[5] = any concentration (0.001-10 mg/mL), vs cells before addition

## O=C[C@H](O)[C@@H](O)[C@H](O[C@@H]1O[C@H](CO)[C@@H](O)[C@H](O)[C@H]1O)[C@H](O)CO [cellobiose]
[1]; 4 and 40 mg/kg/day oral, 12 weeks
  effect on development of breast cancer induced by DMBA (overall conclusion): suppresses the development of breast cancer that is induced by carcinogenic DMBA
[1]; high-dose group 40 mg/kg/day oral once a day, 12 weeks
  changes in body weight: very similar changes to the control group
[1]; high-dose group 40 mg/kg/day oral
  general conditions: deaths: one death was confirmed on day 76
[1]; high-dose group 40 mg/kg/day
  day from which development of tumors was confirmed: 49 days
[1]; high-dose group 40 mg/kg/day, day 49
  number of animals having developed tumors: 2
[1]; high-dose group 40 mg/kg/day, day 84
  number of animals having developed tumors: 11
[1]; high-dose group 40 mg/kg/day, days 42 and 49
  tumor volume estimate vs control: significantly lower than those of the control group
[1]; high-dose group 40 mg/kg/day, until day 42
  number of animals having developed tumors: no development of tumors was confirmed until day 42
[1]; low-dose group 4 mg/kg/day oral once a day, 12 weeks
  changes in body weight: very similar changes to the control group
[1]; low-dose group 4 mg/kg/day oral
  general conditions: deaths: one death was confirmed on day 4
[1]; low-dose group 4 mg/kg/day, autopsy after 12 weeks
  wet weight of tumor vs control: very similar to those of the control group
[1]; low-dose group 4 mg/kg/day
  day from which development of tumors was confirmed: 49 days
[1]; low-dose group 4 mg/kg/day, day 42
  tumor volume estimate vs control: significantly lower than those of the control group
[1]; low-dose group 4 mg/kg/day, day 49
  number of animals having developed tumors: 4
[1]; low-dose group 4 mg/kg/day, day 84
  number of animals having developed tumors: 11
[1]; low-dose group 4 mg/kg/day, until day 42
  number of animals having developed tumors: no development of tumors was confirmed until day 42
[2]; 10 mg/mL, 3 hours, XTT
  change in survival rate compared to the control: almost no change in survival rate
[2]; [5]
  dead cells or cell morphological changes (photomicrographs): no influence of other factors such as an increase in dead cells or cell morphological changes
[3]; 10 mg/mL, 3 hours, XTT
  change in survival rate compared to the control: almost no change in survival rate
[3]; [5]
  dead cells or cell morphological changes (photomicrographs): no influence of other factors such as an increase in dead cells or cell morphological changes
[4]; Hep-G2, any concentration (0.001-10 mg/mL), vs cells before addition
  dead cells or cell morphological changes (photomicrographs): no influence of other factors such as an increase in dead cells or cell morphological changes
[4]; Hep-G2, high concentration of test substance, 3 hours, XTT
  decrease in survival rate (maximum): ~15%

## C[C@@H]1C[C@H]2[C@@H]3CCC4=CC(=O)C=C[C@]4(C)[C@@]3(F)[C@@H](O)C[C@]2(C)[C@@]1(O)C(=O)CO [dexamethasone]
HeLa cells
  decrease in survival rate: about 40%
